# Legend:
# Type in all cases: cell-based, mouse
# [1] = tested on: α7 integrin (LacZ reporter in α7+/LacZ myotubes); assay: Myotube α7 integrin FDG assay (Burkin assay in myotubes, 96-well); conditions: myotubes; for fold induction at 0.5 µM / fold induction at 1 µM / fold induction at 5 µM / fold induction at 10 µM / fold induction at 20 µM / fold induction at 40 µM: Mus musculus, Myotube, read-out: Burkin Assay in Myotubes, α7 integrin LacZ reporter signal relative to DMSO
# [2] = tested on: α7 integrin (LacZ reporter in α7βgal+/− myoblasts); assay: Myoblast α7+/LacZ integrin FDG assay (Burkin assay in myoblasts, 96-well); conditions: α7+/LacZ myoblasts, 96-well; for fold induction at 0.5 µM / fold induction at 1 µM / fold induction at 5 µM / fold induction at 10 µM / fold induction at 20 µM / fold induction at 40 µM: Mus musculus, Myoblast, 48 h, read-out: Burkin Assay in Myoblasts, signal relative to DMSO
# [3] = tested on: β-galactosidase in CMV-LacZ C2C12 myotubes; assay: CMV-LacZ secondary screen in C2C12 myotubes (β-Gal stabilizing assay); conditions: for CMV-LACZ in Myotubes (β-galactosidase activity relative to DMSO): CMV-LacZ C2C12 myotubes, 96-well format; for CMV-LACZ in Myotubes, signal relative to DMSO / fold induction at 5 µM / fold induction at 10 µM / fold induction at 20 µM / fold induction at 40 µM: C2C12 CMV-LacZ myotubes, fold relative to DMSO; for fold induction at 5 µM / fold induction at 10 µM / fold induction at 20 µM / fold induction at 40 µM: Mus musculus; for fold induction at 5 µM: C2C12, read-out: CMV-LACZ in Myotubes, signal relative to DMSO, 5 uM; for fold induction at 10 µM: C2C12, read-out: CMV-LACZ in Myotubes, signal relative to DMSO, 10 uM; for fold induction at 20 µM: C2C12, read-out: CMV-LACZ in Myotubes, signal relative to DMSO, 20 uM; for fold induction at 40 µM: C2C12, read-out: CMV-LACZ in Myotubes, signal relative to DMSO, 40 uM
# How it was run: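 CMV-LacZ C2C12 line (clonal, FDG-screened); myoblasts/myotubes dosed 0.5–40 μM (0.5, 1, 5, 10, 20, 40 μM); n=2 per point; β-gal stabilization read-out.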
SMILES,Burkin Assay in Myotubes (signal relative to DMSO) ([1]; 0.5 uM),Burkin Assay in Myotubes (signal relative to DMSO) ([1]; 1 uM),Burkin Assay in Myotubes (signal relative to DMSO) ([1]; 5 uM),Burkin Assay in Myotubes (signal relative to DMSO) ([1]; 10 uM),Burkin Assay in Myotubes (signal relative to DMSO) ([1]; 20 uM),Burkin Assay in Myotubes (signal relative to DMSO) ([1]; 40 uM),"Burkin Assay in Myoblasts, value relative to DMSO ([2]; 0.5 uM)","Burkin Assay in Myoblasts, value relative to DMSO ([2]; 1 uM)","Burkin Assay in Myoblasts, value relative to DMSO ([2]; 5 uM)","Burkin Assay in Myoblasts, value relative to DMSO ([2]; 10 uM)","Burkin Assay in Myoblasts, value relative to DMSO ([2]; 20 uM)","Burkin Assay in Myoblasts, value relative to DMSO ([2]; 40 uM)",CMV-LACZ in Myotubes (β-galactosidase activity relative to DMSO) ([3]; 5 uM),CMV-LACZ in Myotubes (β-galactosidase activity relative to DMSO) ([3]; 10 uM),CMV-LACZ in Myotubes (β-galactosidase activity relative to DMSO) ([3]; 20 uM),CMV-LACZ in Myotubes (β-galactosidase activity relative to DMSO) ([3]; 40 uM),"CMV-LACZ in Myotubes, signal relative to DMSO ([3]; 5 uM)","CMV-LACZ in Myotubes, signal relative to DMSO ([3]; 10 uM)","CMV-LACZ in Myotubes, signal relative to DMSO ([3]; 20 uM)","CMV-LACZ in Myotubes, signal relative to DMSO ([3]; 40 uM)",further results
COc1cccc(N2C(=O)CC(N3CCc4ccccc4C3)C2=O)c1 (stereo not drawn) [MLS000769322-01],0.9609,1.055,1.1195,1.165,1.067,1.019,0.9535,0.9354,0.9653,1.0771,1.006,0.955,0.8609,1.02,1.118,1.091,–,–,–,–,–
Cc1ccc(S(=O)(=O)N2CN(CC3CCCO3)c3nc4ccccc4nc32)c(C)c1 (stereo not drawn) [MLS001139288-01],–,–,–,–,–,–,–,–,–,–,–,–,–,–,–,–,1.247,1.047,1.096,1.0825,"Burkin Assay in Myotubes, α7 integrin LacZ reporter signal relative to DMSO ([1]; 0.5 uM): 0.9234; Burkin Assay in Myotubes, α7 integrin LacZ reporter signal relative to DMSO ([1]; 1 uM): 0.8525; Burkin Assay in Myotubes, α7 integrin LacZ reporter signal relative to DMSO ([1]; 5 uM): 0.9829; Burkin Assay in Myotubes, α7 integrin LacZ reporter signal relative to DMSO ([1]; 10 uM): 0.9777; Burkin Assay in Myotubes, α7 integrin LacZ reporter signal relative to DMSO ([1]; 20 uM): 1.313; Burkin Assay in Myotubes, α7 integrin LacZ reporter signal relative to DMSO ([1]; 40 uM): 0.7808; Burkin Assay in Myoblasts, signal relative to DMSO ([2]; 0.5 uM): 0.9823; Burkin Assay in Myoblasts, signal relative to DMSO ([2]; 1 uM): 0.9709; Burkin Assay in Myoblasts, signal relative to DMSO ([2]; 5 uM): 0.8634; Burkin Assay in Myoblasts, signal relative to DMSO ([2]; 10 uM): 0.9225; Burkin Assay in Myoblasts, signal relative to DMSO ([2]; 20 uM): 1.085; Burkin Assay in Myoblasts, signal relative to DMSO ([2]; 40 uM): 0.9336"
Cc1ccc(-c2csc(Nc3ccc(C(=O)O)cc3)[n+]2Cc2ccccc2)cc1 [MLS000374261-01],0.8144,0.8386,1.131,0.9288,0.423,0.449,0.7676,0.7758,0.7248,0.7138,0.8376,0.8321,0.8246,0.8319,0.448,0.5036,–,–,–,–,–
Cc1cc(C)cc(-n2nnc(C(=O)NCc3ccccc3Cl)c2N)c1 [MLS000094770-01],1.14,1,1.317,0.823,0.8175,0.7119,1.021,0.9676,0.9491,0.9866,0.7999,0.6762,–,–,–,–,0.8081,0.9406,0.9412,0.8421,–
COc1ccc(Nc2ncnc3ccc(C)cc23)cc1 [MLS001212498-01],–,–,–,–,–,–,–,–,–,–,–,–,–,–,–,–,–,–,–,–,fold induction at 0.5 µM ([1]; 0.5 uM): 0.941; fold induction at 1 µM ([1]; 1 uM): 1.12; fold induction at 5 µM ([1]; 5 uM): 1.11; fold induction at 10 µM ([1]; 10 uM): 1.34; fold induction at 20 µM ([1]; 20 uM): 1.16; fold induction at 40 µM ([1]; 40 uM): 1.16; fold induction at 0.5 µM ([2]; 0.5 uM): 1.05; fold induction at 1 µM ([2]; 1 uM): 1.2; fold induction at 5 µM ([2]; 5 uM): 1.18; fold induction at 10 µM ([2]; 10 uM): 1.31; fold induction at 20 µM ([2]; 20 uM): 1.29; fold induction at 40 µM ([2]; 40 uM): 1.4; fold induction at 5 µM [3]: 0.85; fold induction at 10 µM [3]: 0.784; fold induction at 20 µM [3]: 0.749; fold induction at 40 µM [3]: 0.848
COc1ccc(-c2cc(COc3ccccc3)on2)cc1 [MLS000695955-01],–,–,–,–,–,–,–,–,–,–,–,–,–,–,–,–,–,–,–,–,fold induction at 0.5 µM ([1]; 0.5 uM): 0.945; fold induction at 1 µM ([1]; 1 uM): 1.03; fold induction at 5 µM ([1]; 5 uM): 1.15; fold induction at 10 µM ([1]; 10 uM): 1.32; fold induction at 20 µM ([1]; 20 uM): 1.23; fold induction at 40 µM ([1]; 40 uM): 1.39; fold induction at 0.5 µM ([2]; 0.5 uM): 0.902; fold induction at 1 µM ([2]; 1 uM): 0.871; fold induction at 5 µM ([2]; 5 uM): 1.08; fold induction at 10 µM ([2]; 10 uM): 1.06; fold induction at 20 µM ([2]; 20 uM): 0.961; fold induction at 40 µM ([2]; 40 uM): 1.03; fold induction at 5 µM [3]: 0.789; fold induction at 10 µM [3]: 0.896; fold induction at 20 µM [3]: 0.992; fold induction at 40 µM [3]: 0.93
COc1ccc(-n2c(SCC(=O)Nc3cccc(C(=O)O)c3)nnc2-c2ccco2)cc1 [MLS001215742-01],1.02,1.104,0.9803,1.155,0.8384,0.9687,0.887,0.926,1.04,1.105,0.7682,0.8165,1.026,1.1034,0.9254,0.9851,–,–,–,–,–
CNc1nnc(SCC(=O)c2cc(C)n(C3CC3)c2C)s1 [MLS002156485-01],1.0551,0.9807,1.2005,1.0687,1.057,1.156,1.059,0.9382,0.9278,0.8752,1.052,1.026,0.9468,0.9523,1.115,0.9483,–,–,–,–,–
COc1cc(Cl)cc(CN2CCC(CCC(=O)NC3CC3)CC2)c1OC [MLS001162872-01],1.13,1.051,0.8369,1.031,1.034,0.8876,0.9547,0.949,0.9025,0.904,0.783,0.7773,–,–,–,–,0.7855,1.084,1.061,0.9794,–
